Experimental data: US20130245061A1, “PHARMACEUTICAL COMPOSITIONS” (NOVARTIS AG, priority 2010, published 2013)

What was measured:
[1] = pH-dependent solubility of the therapeutic compound; assay type: physicochemical; details: pH higher than 3
[2] = permeability of the therapeutic compound; assay type: in vitro ADME
[3] = 2-Step Dissolution Test (pH 2 then pH 6.8); assay type: physicochemical; details: pH 6.8, second step; FIG. 2
Protocol: Capsules containing either Compound A alone, Formulation Variant 1 or Variant 2 are placed in 900 mL of pH 2 HCl and then stirred in a USP Apparatus II rotating at 50 rpm for 10 to 100 minutes (with fast stir from about minute 60 to minute 90). At approximately the 100 minute time point, this medium is adjusted to pH 6.8 and to a volume of 1000 ml and then stirred in a USP Apparatus II rotating at 50 rpm. Samples are filtered using a 100 μm Varian full flow filter and analyzed by UV.
Capsules containing either Compound A alone, Formulation Variants 1 or 2 are separately evaluated using a 2-Step Dissolution Test. This analysis compared the dissolution profile of capsules containing 68.5 mg per unit of 2-methyl-2-[4-(3-methyl-2-oxo-8-quinolin-3-yl-2,3-dihydro-imidazo[4,5-c]quinolin-1-yl)-phenyl]-propionitrile monotosylate salt (which is equivalent to 50 mg of the free base of 2-methyl-2-[4-(3-methyl-2-oxo-8-quinolin-3-yl-2,3-dihydro-imidazo[4,5-c]quinolin-1-yl)-phenyl]-propionitrile) at pH 2 and pH 6.8.
For this analysis, capsules containing either Compound A alone, Formulation Variant 1 or Variant 2 are placed in 900 mL of pH 2 HCl and then stirred in a USP Apparatus II rotating at 50 rpm for 10-100 minutes (with fast stir from about minute 60 to minute 90). […] Samples are filtered using a 100 μm Varian Full Flow filter and analyzed by HPLC.

## Cn1c(=O)n(-c2ccc(C(C)(C)C#N)cc2)c2c3cc(-c4cnc5ccccc5c4)ccc3ncc21 [Compound A, 2-methyl-2-[4-(3-methyl-2-oxo-8-quinolin-3-yl-2,3-dihydro-imidazo[4,5-c]quinolin-1-yl)-phenyl]-propionitrile]
[1]
  solubility: approximately 0%
[2]
  permeability: low
[3]
  drug release: approximately 0%
